# Laboratory results taken from US12655130B2 (ASSEMBLY BIOSCIENCES, INC., priority 2020, dated 2026).
# System: HBV viral load (viral production from HepAD38 cells)
# Experiment: Activity of test compounds on viral production from HepAD38 cells (viral load by qPCR of HBV core sequence)
# Assay type: cell-based
# Conditions: Hepatitis B virus, HePAD38, 120 h, viral load lowering, 5 days, qPCR of supernatant, read-out: VL HepAD38 EC50 range
# Outline: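 EC50 and CC50 come from four-parameter logistic fits: HBV core DNA in supernatant by TaqMan qPCR against DNA standards, normalised to DMSO controls, and cell viability by CellTiter-Glo. Cells were plated at 50,000/well without tetracycline (2% FBS) and exposed to compounds (highest 10 μM) for 5 days, 37 °C.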
row,SMILES,EC50 [µM]
1,"CN(C)Cc1cnn(C)c1C1(O)CC2CC(c3ncn(C)c3C(=O)Nc3ccc(F)c(Cl)c3)CC2C1 (single isomer, unassigned) [Example 70, N-(3-Chloro-4-fluorophenyl)-4-(5-(4-((dimethylamino)methyl)-1-methyl-1H-pyrazol-5-yl)-5-hydroxyoctahydropentalen-2-yl)-1-methyl-1H-imidazole-5-carboxamide]",< 0.01
2,"CC(C)n1cc(C(F)(F)F)c(C2(O)CC3CC(c4ncn(C)c4C(=O)Nc4ccc(F)c(Cl)c4)CC3C2)n1 (stereo not drawn) [Example 160, N-(3-Chloro-4-fluorophenyl)-4-(5-hydroxy-5-(1-isopropyl-4-(trifluoromethyl)-1H-pyrazol-3-yl)octahydropentalen-2-yl)-1-methyl-1H-imidazole-5-carboxamide]",< 0.01
3,"Cn1cnc(C2CC3CC(O)(Cc4c(Br)cnn4C)CC3C2)c1C(=O)Nc1ccc(F)c(Cl)c1 (stereo not drawn) [Example 123, 4-(5-((4-bromo-1-methyl-1H-pyrazol-5-yl)methyl)-5-hydroxyoctahydropentalen-2-yl)-N-(3-chloro-4-fluorophenyl)-1-methyl-1H-imidazole-5-carboxamide]",< 0.01
4,"Cn1cnc(C2CC3CC(O)(c4c(Br)c(C#N)nn4C)CC3C2)c1C(=O)Nc1ccc(F)c(Cl)c1 (stereo not drawn) [Example 181, 4-(5-(4-Bromo-3-cyano-1-methyl-1H-pyrazol-5-yl)-5-hydroxyoctahydropentalen-2-yl)-N-(3-chloro-4-fluorophenyl)-1-methyl-1H-imidazole-5-carboxamide]",< 0.01
5,"Cn1cnc(C2CC3CC(O)(c4cc(C(C)(C)O)nn4C)CC3C2)c1C(=O)Nc1ccc(F)c(C#N)c1 (stereo not drawn) [Example 108, N-(3-Cyano-4-fluorophenyl)-4-(5-hydroxy-5-(3-(2-hydroxypropan-2-yl)-1-methyl-1H-pyrazol-5-yl)octahydropentalen-2-yl)-1-methyl-1H-imidazole-5-carboxamide]",< 0.01
6,CCn1nc(N)cc1C1(O)CC2CC(c3ncn(C)c3C(=O)Nc3ccc(F)c(Cl)c3)CC2C1 (stereo not drawn) [Example 76],< 0.01
7,"Cn1cnc(C2CC3CC(O)(c4c[nH]nc4C(F)(F)F)CC3C2)c1C(=O)Nc1ccc(F)c(C#N)c1 (stereo not drawn) [Example 193, N-(3-Cyano-4-fluorophenyl)-4-(5-hydroxy-5-(3-(trifluoromethyl)-1H-pyrazol-4-yl)octahydropentalen-2-yl)-1-methyl-1H-imidazole-5-carboxamide]",< 0.01
8,"Cn1cnc(C2CC3CC(O)(c4c(C(N)=O)cnn4C)CC3C2)c1C(=O)Nc1ccc(F)c(Cl)c1 (stereo not drawn) [Example 126, 5-(5-(5-((3-chloro-4-fluorophenyl)carbamoyl)-1-methyl-1H-imidazol-4-yl)-2-hydroxyoctahydropentalen-2-yl)-1-methyl-1H-pyrazole-4-carboxamide]",< 0.01
9,"CC(C)C(N)C(=O)Nc1cc(C2(O)CC3CC(c4ncn(C)c4C(=O)Nc4ccc(F)c(Cl)c4)CC3C2)n(C)n1 (stereo not drawn) [Example 220, 4-(5-(3-(2-Amino-3-methylbutanamido)-1-methyl-1H-pyrazol-5-yl)-5-hydroxyoctahydropentalen-2-yl)-N-(3-chloro-4-fluorophenyl)-1-methyl-1H-imidazole-5-carboxamide]",< 0.01
10,"[2H]C([2H])([2H])n1nccc1C1(O)CC2CC(c3ncn(C)c3C(=O)Nc3ccc(F)c(Cl)c3)CC2C1 (stereo not drawn) [Example 137, N-(3-chloro-4-fluorophenyl)-4-(5-hydroxy-5-(1-(methyl-d3)-1H-pyrazol-5-yl)octahydropentalen-2-yl)-1-methyl-1H-imidazole-5-carboxamide]",< 0.01
11,"Cn1cnc(C2CC3CC(O)(c4cc(C(C)(C)C(N)=O)nn4C)CC3C2)c1C(=O)Nc1ccc(F)c(Cl)c1 (stereo not drawn) [Example 106, 4-(5-(3-(1-amino-2-methyl-1-oxopropan-2-yl)-1-methyl-1H-pyrazol-5-yl)-5-hydroxyoctahydropentalen-2-yl)-N-(3-chloro-4-fluorophenyl)-1-methyl-1H-imidazole-5-carboxamide]",< 0.01
12,"Cn1cnc(C2CC3CC(O)(c4cc(C(C)(C)C#N)nn4C)CC3C2)c1C(=O)Nc1ccc(F)c(Cl)c1 (stereo not drawn) [Example 104, N-(3-chloro-4-fluorophenyl)-4-(5-(3-(2-cyanopropan-2-yl)-1-methyl-1H-pyrazol-5-yl)-5-hydroxyoctahydropentalen-2-yl)-1-methyl-1H-imidazole-5-carboxamide]",< 0.01
13,"Cn1cc(C2(O)CC3CC(c4ncn(C)c4C(=O)Nc4ccc(F)c(C#N)c4)CC3C2)c(C(F)(F)F)n1 (stereo not drawn) [Example 115, N-(3-Cyano-4-fluorophenyl)-4-(5-hydroxy-5-(1-methyl-3-(trifluoromethyl)-1H-pyrazol-4-yl)octahydropentalen-2-yl)-1-methyl-1H-imidazole-5-carboxamide]",< 0.01
14,"Cn1cc(Cl)c(C2(O)CC3CC(c4ncn(C)c4C(=O)Nc4ccc(F)c(Cl)c4)CC3C2)n1 (stereo not drawn) [Example 139, 4-(5-(4-Chloro-1-methyl-1H-pyrazol-3-yl)-5-hydroxyoctahydropentalen-2-yl)-N-(3-chloro-4-fluorophenyl)-1-methyl-1H-imidazole-5-carboxamide]",< 0.01
15,"CC(C)Cn1nc(N)c(Cl)c1C1(O)CC2CC(c3ncn(C)c3C(=O)Nc3ccc(F)c(Cl)c3)CC2C1 (stereo not drawn) [Example 172, 4-(5-(3-Amino-4-chloro-1-isobutyl-1H-pyrazol-5-yl)-5-hydroxyoctahydropentalen-2-yl)-N-(3-Chloro-4-fluorophenyl)-1-methyl-1H-imidazole-5-carboxamide]",< 0.01
16,"Cn1nc(C(F)(F)F)cc1C1(O)CC2CC(c3nc(Cl)n(C)c3C(=O)Nc3ccc(F)c(Cl)c3)CC2C1 (stereo not drawn) [Example 111, 2-Chloro-N-(3-chloro-4-fluorophenyl)-4-(5-hydroxy-5-(1-methyl-3-(trifluoromethyl)-1H-pyrazol-5-yl)octahydropentalen-2-yl)-1-methyl-1H-imidazole-5-carboxamide]",0.01 to 0.05
17,"Cn1cnc(C2CC3CC(O)(c4cc(OCC(O)C(F)(F)F)nn4C)CC3C2)c1C(=O)Nc1ccc(F)c(Cl)c1 (stereo not drawn) [Example 207, N-(3-Chloro-4-fluorophenyl)-4-(5-hydroxy-5-(1-methyl-3-(3,3,3-trifluoro-2-hydroxypropoxy)-1H-pyrazol-5-yl)octahydropentalen-2-yl)-1-methyl-1H-imidazole-5-carboxamide]",< 0.01
18,"Cn1cnc(C2CC3CC(O)(c4cc[nH]n4)CC3C2)c1C(=O)Nc1ccc(F)c(Cl)c1 (stereo not drawn) [Example 116, N-(3-chloro-4-fluorophenyl)-4-(5-hydroxy-5-(1H-pyrazol-3-yl)octahydropentalen-2-yl)-1-methyl-1H-imidazole-5-carboxamide]",< 0.01
19,"Cn1cnc(C2CC3CC(O)(c4[nH]nc(C(F)(F)F)c4Br)CC3C2)c1C(=O)Nc1ccc(F)c(C#N)c1 (stereo not drawn) [Example 195, 4-(5-(4-Bromo-3-(trifluoromethyl)-1H-pyrazol-5-yl)-5-hydroxyoctahydropentalen-2-yl)-N-(3-cyano-4-fluorophenyl)-1-methyl-1H-imidazole-5-carboxamide]",< 0.01
20,"CC(=O)c1nn(C)cc1C1(O)CC2CC(c3ncn(C)c3C(=O)Nc3ccc(F)c(Cl)c3)CC2C1 (stereo not drawn) [Example 183, 4-(5-(3-Acetyl-1-methyl-1H-pyrazol-4-yl)-5-hydroxyoctahydropentalen-2-yl)-N-(3-chloro-4-fluorophenyl)-1-methyl-1H-imidazole-5-carboxamide]",0.01 to 0.05
21,"Cn1cnc(C2CC3CC(O)(c4c([N+](=O)[O-])cnn4C)CC3C2)c1C(=O)Nc1ccc(F)c(Cl)c1 (stereo not drawn) [Example 127, N-(3-chloro-4-fluorophenyl)-4-(5-hydroxy-5-(1-methyl-4-nitro-1H-pyrazol-5-yl)octahydropentalen-2-yl)-1-methyl-1H-imidazole-5-carboxamide]",0.01 to 0.05
22,"Cn1ccnc1C1(O)CC2CC(c3ncn(C)c3C(=O)Nc3ccc(F)c(Cl)c3)CC2C1 (single isomer, unassigned) [Example 5, N-(3-Chloro-4-fluorophenyl)-4-(5-hydroxy-5-(1-methyl-1H-imidazol-2-yl)octahydropentalen-2-yl)-1-methyl-1H-imidazole-5-carboxamide]",< 0.01

# Same assay, conditions: viral load lowering, 5 days, qPCR of supernatant, read-out: VL HepAD38 EC50 range
row,SMILES,EC50 [µM]
1,"Cn1cnc(C2CC3CC(O)(Cn4cccn4)CC3C2)c1C(=O)Nc1ccc(F)c(Cl)c1 (single isomer, unassigned) [Example 129, 4-(5-((1H-pyrazol-1-yl)methyl)-5-hydroxyoctahydropentalen-2-yl)-N-(3-chloro-4-fluorophenyl)-1-methyl-1H-imidazole-5-carboxamide]",0.01 to 0.05
2,"Cn1cnc(C2CC3CC(O)(CO)CC3C2)c1C(=O)Nc1ccc(F)c(Cl)c1 (single isomer, unassigned) [Example 20, N-(3-Chloro-4-fluorophenyl)-4-(5-hydroxy-5-(hydroxymethyl)octahydro-pentalen-2-yl)-1-methyl-1H-imidazole-5-carboxamide]",< 0.01
3,"CC(CO)Oc1cc(C2(O)CC3CC(c4ncn(C)c4C(=O)Nc4ccc(F)c(Cl)c4)CC3C2)n(C)n1 (single isomer, unassigned) [Example 69, N-(3-Chloro-4-fluorophenyl)-4-(5-hydroxy-5-(3-((1-hydroxypropan-2-yl)oxy)-1-methyl-1H-pyrazol-5-yl)octahydropentalen-2-yl)-1-methyl-1H-imidazole-5-carboxamide]",0.01 to 0.05
4,"CC(CO)Oc1cc(C2(O)CC3CC(c4ncn(C)c4C(=O)Nc4ccc(F)c(Cl)c4)CC3C2)n(C)n1 (stereo not drawn) [Example 67, N-(3-Chloro-4-fluorophenyl)-4-(5-hydroxy-5-(3-((1-hydroxypropan-2-yl)oxy)-1-methyl-1H-pyrazol-5-yl)octahydropentalen-2-yl)-1-methyl-1H-imidazole-5-carboxamide]",< 0.01
5,"CC(O)COc1cc(C2(O)CC3CC(c4ncn(C)c4C(=O)Nc4ccc(F)c(Cl)c4)CC3C2)n(C)n1 (single isomer, unassigned) [Example 210, N-(3-Chloro-4-fluorophenyl)-4-(5-hydroxy-5-(3-(2-hydroxypropoxy)-1-methyl-1H-pyrazol-5-yl)octahydropentalen-2-yl)-1-methyl-1H-imidazole-5-carboxamide]",< 0.01
